Entries after “also recorded” stand apart in the source; their conditions may differ.
Columns and labels:
[1] = tested on: healthy, male and female subjects; test: Driving performance (real driving on the road) after evening and middle of the night dosing; type: in vivo, human; conditions: for effect on memory test, body sway, DSST or critical tracking: cognitive and psychomotor test battery; for effect on memory test, body sway, DSST or critical tracking / effect on driving: gaboxadol 15 mg; for effect on driving: driving test at 9 am; for tolerability / most frequent adverse events: 15 mg
Source text: The study participants included healthy, male and female subjects between 21 and 45 years of age, with a valid drivers license for at least 3 years.
Following a cognitive and psychomotor test battery, the driving test started at 9 am and lasted for one hour.

[2] = tested on: healthy adults subjected to a 5-hour sleep restriction; test: Daytime performance after sleep restriction (MSLT, SWS, KSS, neurobehavioral battery); type: in vivo, human
Description: The study included a 2-night single-blind placebo run-in period, a 4-night double-blind treatment period during which sleep was restricted to 5 hours and a 2-night single-blind placebo run-out period. The study included healthy male and female volunteers 18 to <55 years of age.
2-night run-in period: All patients received placebo ?
2-night run-out period: All patients received placebo
The primary endpoints included observations based on the Multiple Sleep Latency Test (MSLT) and Slow Wave Sleep (SWS) assessment.

[3] = tested on: subjects with Angelman syndrome; test: Clinical Global Impressions (CGI-S, CGI-I) in 12-week placebo-controlled Angelman syndrome trial; type: in vivo, human; conditions: for percentage very much improved on CGI-I: QD group; for responders (one point or greater improvement in the CGI-I scale): once daily dose
Source text: CGI-S scale assessed all sub-domains of Angelman syndrome (gross and fine motor ability, sleep, and adaptive behavior) plus globally by the investigator. […] The Clinical Global Impressions-Improvement (CGI-I) scale was used to assess all sub-domains of Angelman syndrome (gross and fine motor ability, sleep, and adaptive behavior) plus globally by the investigator and caregiver. CGI-I is a 7-point scale in which the investigator rates the improvement or worsening of symptoms compared to baseline.

[4] = tested on: subjects with Angelman syndrome; test: Sleep diary in 12-week placebo-controlled Angelman syndrome trial; type: in vivo, human; conditions: for 6-week LS Mean sleep time (total sleep time at night) / 12-week LS Mean sleep time (total sleep time at night): sleep diary
Description: This multicenter, randomized, parallel (3-arm), double-blind, placebo-controlled trial enrolled 88 patients including adults (n=66) and adolescents (n=22) aged 13 to 49 years of age, diagnosed with Angelman syndrome. […] The dosing schedules that were assessed against placebo were once daily (QD): An evening dose titrated to the target dose of 15 mg unless not tolerated; and twice daily (BID): Evening and morning doses titrated to the target doses of 15 mg evening dose and 10 mg morning dose unless not tolerated.
The observed and change from baseline in total hours of sleep time at night (assessed from subject Sleep Diary) is provided in Table III.

[5] = tested on: subjects with Angelman syndrome; test: Adverse events in 12-week placebo-controlled Angelman syndrome trial; type: in vivo, human
[6] = tested on: healthy elderly male and female subjects; conditions: in vivo
insomnia = conditions: three-month efficacy study; cited from earlier work
[7] = tested on: Purkinje cells in cerebellar brain slices; conditions: low doses; cited from earlier work
Ube3a-deficient mice = conditions: low doses; Ube3a-deficient mice in vivo; cited from earlier work
[8] = tested on: patients with a history of drug abuse; conditions: cited from earlier work
[9] = Plasma concentration profiles, dose proportionality and absolute bioavailability of gaboxadol after single oral doses and 10 mg IV; conditions: geometric mean, N = 10
[10] = middle-of-the-night (4 am) administration, zolpidem 10 mg
[11] = BID dosing (10 mg morning, 15 mg evening), N = 29

CN1CCN(C(=O)OC2c3nccnc3C(=O)N2c2ccc(Cl)cn2)CC1 (stereo not drawn) [zopiclone]
effect on memory test, body sway, DSST or critical tracking ([1]; zopiclone 7.5 mg): had effect on several of these tests
effect on driving ([1]; evening dose, zopiclone 7.5 mg): numerically greater effect

Cc1ccc(-c2nc3ccc(C)cn3c2CC(=O)N(C)C)cc1 [zolpidem]
effect on driving [1, 10]: numerically greater effect

Oc1noc2c1CCNC2 [gaboxadol, 4,5,6,7-tetrahydroisoxazolo [5,4-c]pyridine-3-ol]
effect on memory test, body sway, DSST or critical tracking ([1]; zopiclone 7.5 mg): no effect
tolerability ([1]; evening dose): well tolerated
most frequent adverse events ([1]; evening treatment): headache and somnolence
effect on driving compared with alcohol ([1]; gaboxadol 15 mg evening dose vs 0.05% blood alcohol concentration): less than the effect observed at a 0.05% blood alcohol concentration
effect on driving [1, 10]: clinically relevant impairing effect
tolerability ([1]; middle-of-the-night dose): well tolerated
most frequent adverse events ([1]; middle-of-the-night treatment): dizziness, nausea and somnolence
biophysiological measures of stress (heart rate variability, cortisol levels, catecholamine levels, body temperature) vs placebo ([2]; 15 mg vs placebo): no differences
daytime performance, effect sizes for the neurocognitive battery ([2]; 15 mg vs placebo): no strong evidence that gaboxadol improves daytime performance
subjective daytime sleepiness vs placebo ([2]; 15 mg, Sleep Restriction period): trend towards less subjective daytime sleepiness
amount of slow wave sleep (SWS) vs placebo ([2]; 15 mg, Sleep Restriction period, p<0.001, 1 sided): increases the amount of slow wave sleep; also recorded: significantly more SWS
daytime sleepiness (sleep propensity by MSLT) vs placebo ([2]; 15 mg, Sleep Restriction period, p=0.047, 1 sided): protective effect on reducing daytime sleepiness; also recorded: significantly less daytime sleepiness
MSLT longer than placebo, average ([2]; 15 mg, last two Sleep Restriction days): 2.01 min
Karolinska Sleepiness Score (KSS) less than placebo, average ([2]; 15 mg, last two Sleep Restriction days, p=0.058, 1 sided, LDA model): 0.68
SWS longer than placebo, average ([2]; 15 mg, last two Sleep Restriction nights): 20.53 min
CGI-I 6-week LS Mean [3, 11]: 3.54 (0.16)
CGI-I 12-week LS Mean [3, 11]: 3.58 (0.16)
CGI-I 6-week LS Mean difference ([3]; BID dosing minus placebo): −0.06 (0.21)
CGI-I 12-week LS Mean difference ([3]; BID dosing minus placebo): −0.21 (0.22)
CGI-I 6-week LS Mean ([3]; Combined QD and BID, N = 58): 3.45 (0.12)
CGI-I 12-week LS Mean ([3]; Combined QD and BID, N = 58): 3.29 (0.12)
CGI-I 6-week LS Mean difference ([3]; Combined minus placebo): −0.15 (0.18)
CGI-I 12-week LS Mean difference ([3]; Combined minus placebo): −0.49 (0.19)
CGI-I 6-week LS Mean ([3]; QD dosing (15 mg evening), N = 29, 7-point scale, clinician assessed): 3.54 (0.16)
CGI-I 6-week LS Mean difference ([3]; QD dosing minus placebo): −0.24 (0.21)
CGI-I 12-week LS Mean difference ([3]; QD dosing minus placebo): −0.78 (0.22)
percentage very much improved on CGI-I ([3]; 18-24 year old, placebo 9%): 27%
percentage very much improved on CGI-I ([3]; oldest cohort (25-49), placebo 11%): 20%
percentage very much improved on CGI-I ([3]; youngest cohort (13-17), placebo 0%): 33%
CGI-S Hyperactivity, change ([3]; QD, placebo 3.1 to 3.0): 3.5 to 2.9
CGI-S Stereotypic behavior, change ([3]; QD, placebo 3.3 to 3.6): 3.7 to 3.1
responders (one point or greater improvement in the CGI-I scale) in overall symptoms ([3]; once daily dose cohort, all ages, placebo 26%): 70%
responders (one point or greater improvement in the CGI-I scale) ([3]; 13-17 year old, placebo 29%): 83%
responders (one point or greater improvement in the CGI-I scale) ([3]; 18-24 year old, placebo 27%): 73%
responders (one point or greater improvement in the CGI-I scale) ([3]; 25-49 year old, placebo 22%): 60%
6-week LS Mean difference, sleep time ([4]; BID dosing): 0.30 (1.1) hours
12-week LS Mean difference, sleep time ([4]; BID dosing): 0.18 (0.97) hours
6-week LS Mean sleep time (total sleep time at night) ([4]; BID dosing, N = 29): 8.95 (1.1) hours
12-week LS Mean sleep time (total sleep time at night) ([4]; BID dosing, N = 29): 8.84 (1.1) hours
6-week LS Mean difference, sleep time ([4]; Combined): 0.22 (0.94) hours
12-week LS Mean difference, sleep time ([4]; Combined): 0.07 (1.0) hours
6-week LS Mean sleep time (total sleep time at night) ([4]; Combined, N = 58): 8.93 (1.3) hours
12-week LS Mean sleep time (total sleep time at night) ([4]; Combined, N = 58): 8.80 (1.1) hours
6-week LS Mean difference, sleep time ([4]; QD dosing): 0.14 (0.81) hours
12-week LS Mean difference, sleep time ([4]; QD dosing): −0.04 (1.1) hours
6-week LS Mean sleep time (total sleep time at night) ([4]; QD dosing, N = 29): 8.91 (1.5) hours
12-week LS Mean sleep time (total sleep time at night) ([4]; QD dosing, N = 29): 8.76 (1.2) hours
subjects with Abdominal Pain upper, number (%) ([5]; BID dosing, N = 29): 0
subjects with At least 1 Adverse Event, number (%) ([5]; BID dosing, N = 29): 19 (66%)
subjects with Diarrhea, number (%) ([5]; BID dosing, N = 29): 1 (3.4%)
subjects with Gastrointestinal disorders, number (%) ([5]; BID dosing, N = 29): 4 (13.8%)
subjects with Nausea, number (%) ([5]; BID dosing, N = 29): 2 (6.9%)
subjects with Retching, number (%) ([5]; BID dosing, N = 29): 1 (3.4%)
subjects with Vomiting, number (%) ([5]; BID dosing, N = 29): 1 (3.4%)
subjects with Abdominal Pain upper, number (%) ([5]; Combined, N = 58): 0
subjects with At least 1 Adverse Event, number (%) ([5]; Combined, N = 58): 37 (64%)
subjects with Diarrhea, number (%) ([5]; Combined, N = 58): 1 (1.7%)
subjects with Gastrointestinal disorders, number (%) ([5]; Combined, N = 58): 4 (6.9%)
subjects with Nausea, number (%) ([5]; Combined, N = 58): 2 (3.4%)
subjects with Retching, number (%) ([5]; Combined, N = 58): 1 (1.7%)
subjects with Vomiting, number (%) ([5]; Combined, N = 58): 1 (1.7%)
subjects with Abdominal Pain upper, number (%) ([5]; QD dosing, N = 29): 0
subjects with At least 1 Adverse Event, number (%) ([5]; QD dosing, N = 29): 18 (62%)
subjects with Diarrhea, number (%) ([5]; QD dosing, N = 29): 0
subjects with Nausea, number (%) ([5]; QD dosing, N = 29): 0
subjects with Retching, number (%) ([5]; QD dosing, N = 29): 0
subjects with Vomiting, number (%) ([5]; QD dosing, N = 29): 0
subjects with Gastrointestinal disorders, number (%) ([5]; QD dosing, N = 29, placebo 6 of 29): 0
residual effect on primary endpoints Choice Reaction Time and Critical Flicker Fusion [6]: did not show residual effect
residual effects on other measurements (MSLT, DSST, Tracking, Memory tests, Body Sway, Leeds Sleep Evaluation Questionnaire) [6]: did not show any signs of residual effects
effects in sleep onset and sleep maintenance (insomnia): failed to show significant effects
abnormal firing properties of a population of Purkinje cells [7]: improve the abnormal firing properties
cerebellar ataxia (Ube3a-deficient mice): reduces cerebellar ataxia
psychiatric adverse events [8]: steep increase in psychiatric adverse events
Fe ([9]; 2.5 mg single oral dose): 43%
Fe ([9]; 5 mg single oral dose): 45%
Fe ([9]; 10 mg I.V.): 53%
Fe ([9]; 10 mg Oral): 53%
Fe ([9]; 15 mg single oral dose): 50%
Fe ([9]; 20 mg single oral dose): 53%

CCN(CC)CCN1C(=O)CN=C(c2ccccc2F)c2cc(Cl)ccc21 [Flurazepam]
residual effect on primary endpoints Choice Reaction Time and Critical Flicker Fusion [6]: showed significant effect

Reference: patent US11096929B2 (Ovid Therapeutics Inc., priority 2015, dated 2021)
